In this assay the target is T1, human carbonic anhydrase isozyme II (hCAII) (Homo sapiens, UniProt P00918).
T1 construct: gene CA2
Nature of the assay: in vitro esterase assay (4-NPA hydrolysis, […] nm); also yeast-based hCAII assay. It counts as biochemical.

Broadly, the IC50 is the point on the concentration scale where inhibition reaches its midpoint. A higher IC50 goes with weaker potency. Compound `COc1cc(-c2cc(=O)c3c(OC)c(OC)c(OC)c(OC)c3o2)cc(OC)c1OC` [compound 4, 5,6,7,8,3′,4′,5′-heptamethoxyflavone] came in with an IC50 of 24 µM.

`COc1cc(-c2oc3c(OC)c(OC)cc(OC)c3c(=O)c2OC)cc(OC)c1OC` [compound 9, 3,5,7,8,3′,4′,5′-Heptamethoxyflavone] yielded an IC50 of 34.3 µM.

Values taken from PMC9728158, “Two Flavonoid-Based Compounds from Murraya paniculata as Novel Human Carbonic Anhydrase Isozyme II Inhibitors Detected by a Resazurin Yeast-Based Assay” (Journal of Microbiology and Biotechnology, 2019).
